Source: patent US12378211B2, “Carbonic anhydrase inhibitors and antibiotics against multidrug resistant bacteria” (Purdue Research Foundation, priority 2018, dated 2025)
Converted amounts (≈) assume the structure as drawn. Like-named read-outs stand apart in the source and are kept apart here.

Experiments:
[1] = system: Mutant-7 of Enterococcus fecalis NR 31975; experiment: microbe, parasite or virus in culture; assay type: cell-based
[2] = system: Mutant-6 of Enterococcus fecalis NR 31975; experiment: microbe, parasite or virus in culture; assay type: cell-based
[3] = system: MRSA NRS 384 (MRSA USA300); experiment: MIC against Staphylococci, broth microdilution; assay type: cell-based, Staphylococcus aureus; details: TSB
Method: (§1) The minimum inhibitory concentrations (MICs) of the compounds and control drugs were determined using the broth microdilution method, according to guidelines outlined by the Clinical and Laboratory Standards Institute (CLSI) 1. Staphylococci strains were grown aerobically overnight on tryptone soya agar plates at 37° C., afterwards a bacterial solution equivalent to 0.5 McFarland standard was prepared and diluted in tryptone soy broth (TSB) to achieve a bacterial concentration of about 5×10^5 CFU/mL and seeded in 96-well well plates. Compounds and control drugs were added in the first row of the 96-well plates and serially diluted along the plates. Plates were then incubated aerobically at 37° C. for 18-20 hours. MICs reported in Table 2 are the minimum concentration of the compounds/control drugs that could inhibit completely the visual growth of the bacteria.

[4] = system: Mutant-2 of Enterococcus fecalis NR 31975; experiment: microbe, parasite or virus in culture; assay type: cell-based
[5] = system: Mutant-15 of Enterococcus fecalis NR 31975; experiment: microbe, parasite or virus in culture; assay type: cell-based
[6] = system: Mutant-4 of Enterococcus fecalis NR 31975; experiment: microbe, parasite or virus in culture; assay type: cell-based
[7] = system: Mutant-3 of Enterococcus fecalis NR 31975; experiment: microbe, parasite or virus in culture; assay type: cell-based
[8] = system: Mutant-5 of Enterococcus fecalis NR 31975; experiment: microbe, parasite or virus in culture; assay type: cell-based
[9] = system: Mutant-13 of Enterococcus fecalis NR 31975; experiment: microbe, parasite or virus in culture; assay type: cell-based
[10] = system: Lactobacillus gasseri EX336960VC03 HIM-400; experiment: MIC against human normal gut microbiota; assay type: cell-based; details: MRS broth, 5% CO2, 48 hours
Method: (§2) Three different bacterial strains were used in this experiment; Bifidobacterium (anaerobic Gram positive bacteria), Bacteroides (anaerobic Gram negative bacteria) and Lactobacillus (microaerophilic Gram positive bacteria). Bifidobacterium and Bacteroides were first grown for 48 hours at 37° C., anaerobically using brain heart infusion supplemented (BHIS) agar (Brain heart infusion agar supplemented with hemin, vitamin K and L-cysteine). Lactobacillus was cultivated on MRS agar and incubated in presence of 5% CO2 for 48 hours at 37° C. Each bacterium was suspended in phosphate buffered saline (PBS) to produce a suspension with optical density that matches 0.5 McFarland standard and diluted in brain heart infusion supplemented broth (for Bifidobacterium and Bacteroides) or in MRS broth (for Lactobacillus) to achieve bacterial concentration of approximately 5×10^5 CFU/ml. Bacteria were then seeded in 96-well plates containing serial dilutions of the compounds and incubated as mentioned previously for 48 hours.

[11] = system: Bifidobacterium breve—JCP7499 HIM 1120; experiment: MIC against human normal gut microbiota; assay type: cell-based; details: BHIS broth, anaerobic, 48 hours
Method: as §2

[12] = system: Bacteroides dorei—CL02T12C06 HM-719; experiment: MIC against human normal gut microbiota; assay type: cell-based; details: BHIS broth, anaerobic, 48 hours
Method: as §2

[13] = system: Bifidobacterium longum subsp. Longum—44B HM 845; experiment: MIC against human normal gut microbiota; assay type: cell-based; details: BHIS broth, anaerobic, 48 hours
Method: as §2

[14] = system: Bacteroides fragilis—CL07T00C01 HIM-709; experiment: MIC against human normal gut microbiota; assay type: cell-based; details: BHIS broth, anaerobic, 48 hours
Method: as §2

[15] = system: Lactobacillus casei ATCC 334; experiment: MIC against human normal gut microbiota; assay type: cell-based; details: MRS broth, 5% CO2, 48 hours
Method: as §2

[16] = system: Mutant-14 of Enterococcus fecalis NR 31975; experiment: microbe, parasite or virus in culture; assay type: cell-based
[17] = system: Enterococcus fecalis Strain SF24413 NR31971; experiment: MIC, broth microdilution in TSB; assay type: cell-based; details: TSB
Summary of the method: (§3)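 Strains were grown aerobically overnight on tryptone soya agar at 37° C, adjusted to 0.5 McFarland and diluted to about 5×10^5 CFU/mL. Compounds were serially diluted across the wells, and plates were incubated aerobically at 37° C for 18-20 hours.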

[18] = system: Enterococcus faecium E417-HM-965; experiment: MIC, broth microdilution in TSB; assay type: cell-based; details: TSB
Summary of the method: as §3

[19] = system: Enterococcus faecium Patient #3-1 NR-31912; experiment: MIC, broth microdilution in TSB; assay type: cell-based; details: TSB
Summary of the method: as §3

[20] = system: Enterococcus fecalis Strain MMH594-NR31975; experiment: MIC, broth microdilution in TSB; assay type: cell-based; details: TSB
Summary of the method: as §3

[21] = system: Enterococcus fecalis Strain SF 28073-NR31972; experiment: MIC, broth microdilution in TSB; assay type: cell-based; details: TSB
Summary of the method: as §3

[22] = system: Enterococcus fecalis Strain SF 24397 NR31970; experiment: MIC, broth microdilution in TSB; assay type: cell-based; details: TSB
Summary of the method: as §3

[23] = system: Enterococcus faecium Patient #2-1-NR-31909; experiment: MIC, broth microdilution in TSB; assay type: cell-based; details: TSB
Summary of the method: as §3

[24] = system: Enterococcus faecalis—S613 HM-334; experiment: MIC, broth microdilution in TSB; assay type: cell-based; details: TSB
Summary of the method: as §3

[25] = system: Staphylococcus epidermidis NRS 101; experiment: MIC against Staphylococci, broth microdilution; assay type: cell-based; details: TSB
Method: as §1

[26] = Staphylococcus aureus, read-out: MIC
[27] = Lactobacillus gasseri, read-out: MIC
[28] = Bifidobacterium longum, read-out: MIC
[29] = Lacticaseibacillus casei, ATCC334, read-out: MIC
[30] = Enterococcus, Table 1, read-out: MIC
[31] = Enterococcus, Table 7, read-out: MIC in TSB
[32] = Enterococcus faecium, E417HM965, Table 1, read-out: MIC
[33] = Enterococcus faecium, E417HM965, Table 7, read-out: MIC in TSB
[34] = Enterococcus faecium, Table 1, read-out: MIC
[35] = Enterococcus faecium, Table 7, read-out: MIC in TSB
[36] = Staphylococcus epidermidis, NRS101, read-out: MIC

Compound: CCc1ccc(C(=O)Nc2nnc(S(N)(=O)=O)s2)cc1 [CAI0017, 4-Ethyl-N-(5-sulfamoyl-1,3,4-thiadiazol-2-yl)benzamide]
- MIC ([1]; Enterococcus): 8 µg/mL (≈ 25.6 µM)
- MIC ([2]; Enterococcus): 8 µg/mL (≈ 25.6 µM)
- MIC [3, 26]: > 64 µg/mL
- MIC ([4]; Enterococcus): 8 µg/mL (≈ 25.6 µM)
- MIC ([5]; Enterococcus): 16 µg/mL (≈ 51.2 µM)
- MIC ([6]; Enterococcus): 16 µg/mL (≈ 51.2 µM)
- MIC ([7]; Enterococcus): 8 µg/mL (≈ 25.6 µM)
- MIC ([8]; Enterococcus): 8 µg/mL (≈ 25.6 µM)
- MIC ([9]; Enterococcus): 16 µg/mL (≈ 51.2 µM)
- MIC [10, 27]: > 64 µg/mL
- MIC ([11]; Bifidobacterium, read-out: MIC): > 64 µg/mL
- MIC ([12]; Bacteroides, read-out: MIC): > 64 µg/mL
- MIC [13, 28]: > 64 µg/mL
- MIC ([14]; Bacteroides, read-out: MIC): > 64 µg/mL
- MIC [15, 29]: > 64 µg/mL
- MIC ([16]; Enterococcus): 8 µg/mL (≈ 25.6 µM)
- MIC [17, 30]: 1 µg/mL (≈ 3.2 µM)
- MIC [17, 31]: 1 µg/mL (≈ 3.2 µM)
- MIC [18, 32]: 0.25 µg/mL (≈ 0.8 µM)
- MIC [18, 33]: 0.25 µg/mL (≈ 0.8 µM)
- MIC [19, 34]: 1 µg/mL (≈ 3.2 µM)
- MIC [19, 35]: 1 µg/mL (≈ 3.2 µM)
- MIC [20, 30]: 1 µg/mL (≈ 3.2 µM)
- MIC [20, 31]: 1 µg/mL (≈ 3.2 µM)
- MIC [21, 30]: 1 µg/mL (≈ 3.2 µM)
- MIC [21, 31]: 1 µg/mL (≈ 3.2 µM)
- MIC [22, 30]: 1 µg/mL (≈ 3.2 µM)
- MIC [22, 31]: 1 µg/mL (≈ 3.2 µM)
- MIC [23, 34]: 0.25 µg/mL (≈ 0.8 µM)
- MIC [23, 35]: 0.25 µg/mL (≈ 0.8 µM)
- MIC [24, 30]: 1 µg/mL (≈ 3.2 µM)
- MIC [24, 31]: 1 µg/mL (≈ 3.2 µM)
- MIC [25, 36]: > 64 µg/mL

Compound: CC(=O)Nc1nnc(S(N)(=O)=O)s1 [Acetazolamide, reference compound]
- MIC ([1]; Enterococcus): 16 µg/mL (≈ 72 µM)
- MIC ([2]; Enterococcus): 32 µg/mL (≈ 144 µM)
- MIC [3, 26]: > 64 µg/mL
- MIC ([4]; Enterococcus): 16 µg/mL (≈ 72 µM)
- MIC ([5]; Enterococcus): 32 µg/mL (≈ 144 µM)
- MIC ([6]; Enterococcus): 32 µg/mL (≈ 144 µM)
- MIC ([7]; Enterococcus): 32 µg/mL (≈ 144 µM)
- MIC ([8]; Enterococcus): 32 µg/mL (≈ 144 µM)
- MIC ([9]; Enterococcus): 32 µg/mL (≈ 144 µM)
- MIC [10, 27]: > 64 µg/mL
- MIC ([11]; Bifidobacterium, read-out: MIC): > 64 µg/mL
- MIC ([12]; Bacteroides, read-out: MIC): > 64 µg/mL
- MIC [13, 28]: > 64 µg/mL
- MIC ([14]; Bacteroides, read-out: MIC): > 64 µg/mL
- MIC [15, 29]: > 64 µg/mL
- MIC ([16]; Enterococcus): 32 µg/mL (≈ 144 µM)
- MIC [17, 30]: 4 µg/mL (≈ 18 µM)
- MIC [17, 31]: 4 µg/mL (≈ 18 µM)
- MIC [18, 32]: 2 µg/mL (≈ 9 µM)
- MIC [18, 33]: 2 µg/mL (≈ 9 µM)
- MIC [19, 34]: 2 µg/mL (≈ 9 µM)
- MIC [19, 35]: 2 µg/mL (≈ 9 µM)
- MIC [20, 30]: 4 µg/mL (≈ 18 µM)
- MIC [20, 31]: 4 µg/mL (≈ 18 µM)
- MIC [21, 30]: 4 µg/mL (≈ 18 µM)
- MIC [21, 31]: 4 µg/mL (≈ 18 µM)
- MIC [22, 30]: 2 µg/mL (≈ 9 µM)
- MIC [22, 31]: 2 µg/mL (≈ 9 µM)
- MIC [23, 34]: 2 µg/mL (≈ 9 µM)
- MIC [23, 35]: 2 µg/mL (≈ 9 µM)
- MIC [24, 30]: 2 µg/mL (≈ 9 µM)
- MIC [24, 31]: 2 µg/mL (≈ 9 µM)
- MIC [25, 36]: > 64 µg/mL

Compound: CC(C)=CC(=O)Nc1nnc(S(N)(=O)=O)s1 [CAI0016, 3-Methyl-N-(5-sulfamoyl-1,3,4-thiadiazol-2-yl) but-2-enamide]
- MIC ([1]; Mutant-7): 4 µg/mL (≈ 15.2 µM)
- MIC ([2]; Mutant-6): 16 µg/mL (≈ 61 µM)
- MIC [3]: >64 µg/mL
- MIC ([4]; Mutant-2): 8 µg/mL (≈ 30.5 µM)
- MIC ([5]; Mutant-15): 8 µg/mL (≈ 30.5 µM)
- MIC ([6]; Mutant-4): 8 µg/mL (≈ 30.5 µM)
- MIC ([7]; Mutant-3): 4 µg/mL (≈ 15.2 µM)
- MIC ([8]; Mutant-5): 4 µg/mL (≈ 15.2 µM)
- MIC ([9]; Mutant-13): 4 µg/mL (≈ 15.2 µM)
- MIC [10]: >64 µg/mL
- MIC [11]: >64 µg/mL
- MIC [12]: >64 µg/mL
- MIC [13]: >64 µg/mL
- MIC [14]: >64 µg/mL
- MIC [15]: >64 µg/mL
- MIC ([16]; Mutant-14): 4 µg/mL (≈ 15.2 µM)
- MIC ([17]; Table 1): 0.5 µg/mL (≈ 1.91 µM)
- MIC in TSB ([17]; Table 7): 0.5 µg/mL (≈ 1.91 µM)
- MIC ([18]; Table 1): 0.25 µg/mL (≈ 0.953 µM)
- MIC ([19]; Table 1): 1 µg/mL (≈ 3.81 µM)
- MIC in TSB ([19]; Table 7): 0.5 µg/mL (≈ 1.91 µM)
- MIC ([20]; Table 1): 0.5 µg/mL (≈ 1.91 µM)
- MIC in TSB ([20]; Table 7): 0.25 µg/mL (≈ 0.953 µM)
- MIC ([21]; Table 1): 0.5 µg/mL (≈ 1.91 µM)
- MIC in TSB ([21]; Table 7): 0.5 µg/mL (≈ 1.91 µM)
- MIC ([22]; Table 1): 0.5 µg/mL (≈ 1.91 µM)
- MIC in TSB ([22]; Table 7): 0.25 µg/mL (≈ 0.953 µM)
- MIC ([23]; Table 1): 0.5 µg/mL (≈ 1.91 µM)
- MIC in TSB ([23]; Table 7): 0.25 µg/mL (≈ 0.953 µM)
- MIC ([24]; Table 1): 0.5 µg/mL (≈ 1.91 µM)
- MIC in TSB ([24]; Table 7): 0.25 µg/mL (≈ 0.953 µM)
- MIC [25]: >64 µg/mL
